Experimental data from patent US7018648B2, “Transdermal device for administering testosterone or one of the derivatives thereof” (Pierre Fabre Medicament, priority 1999, dated 2006).

What was measured:
[1] = Ex vivo permeation on animal skin after pretreatment with promoter compound (permeation index vs blank reference product); assay type: in vitro ADME; conditions: for Permeation index: ratio of cumulative amount of testosterone at 24 hours after skin pretreatment with the compound relative to blank, 1 = no promoting effect
From the text: FIG. 1 represents the permeation indices (PIs), also known as the “enhancement factors” for comparing in vitro the promoting effect of different products.
This is the product sold by the company Alza under the brand name Testoderm CIII®. This matrix transdermal device for scrotal application is free of promoters and, consequently, is more particularly suitable for performing in vitro protocols intended to select the best permeation promoters of this active principle.
As regards the second category of products, it is more particularly advantageous to check their permeation-promoting effect with respect to the active principle according to the invention. Ex vivo studies of permeation on animal skin are carried out using a reference product whose kinetics constitute a “blank”, and then after initial pretreatment of the skin with the promoter compound. The ratio of the cumulative amount at 24 hours of the test relative to the “blank” gives the permeation index “PI” factor or “enhancement factor”. A permeation index of close to 1 means that the test product has no promoting effect for the active principle under consideration and under the operating conditions used. A classification is then possible according to the indications of table II below.

[2] = Solubility at saturation of testosterone in solvents/excipients; assay type: physicochemical
Procedure: Studies for selecting the components of the adhesive matrix other than the actual adhesive are useful and involve solubility and in vitro permeation tests. To evaluate the solubilizing power of different components, solubility studies at saturation are performed.

With `CCN(CC)C(=O)c1cccc(C)c1` [DEET, N,N-diethyl-m-toluamide] the testosterone permeation-promoting effect ([1]; in words) was “lacks any testosterone-promoting effect”.
Work on `CCCCCCCCCCCCN1CCCC1=O` [Laurylpyrrolidone] yielded a Permeation index [1] of 11.27.
With `C[C@]12CCC(=O)C=C1CC[C@@H]1[C@@H]2CC[C@]2(C)C(O)CC[C@@H]12` (some centres unmarked) [testosterone, 17-hydroxyandrost-4-en-3-one] the “Solubility at saturation of testosterone” value ([2]; in Cyclohexane) was 0.06 % m/m, the “Solubility at saturation of testosterone” value ([2]; in Ethanol) was 22.12 % m/m and the “Solubility at saturation of testosterone” value ([2]; in Ethyl acetate) was 4.45 % m/m. For the same molecule, the “Solubility at saturation of testosterone” value ([2]; in Isopropanol) was 12.80 % m/m, the “Solubility at saturation of testosterone” value ([2]; in Laurylpyrrolidone) was 15.90 % m/m and the “Solubility at saturation of testosterone” value ([2]; in Lysophosphatidylcholine) was 6.96 % m/m. The “Solubility at saturation of testosterone” value ([2]; in Methyl laurate) was 1.43 % m/m, the “Solubility at saturation of testosterone” value ([2]; in Polysorbate 80) was 2.62 % m/m and the “Solubility at saturation of testosterone” value ([2]; in Sorbitan laurate) was 4.12 % m/m. The “Solubility at saturation of testosterone” value ([2]; in Tetrahydrofuran) was 27.01 % m/m.
Work on Lysophosphatidylchloline yielded a Permeation index [1] of 9.18.
With Sorbitan laurate the Permeation index [1] was 11.70.
